Assays:
[1] = test system: rat; assay: LD50 determination in rats; format: in vivo
[2] = LD50 determination, intraperitoneal administration; conditions: mouse, in vivo, ip
[3] = LD50 determination, oral administration; conditions: mouse, in vivo
[4] = biological target: T1, Cyclooxygenase 2 derived from sheep placentae (Ovis aries, UniProt P79208); assay: In vitro inhibition of cyclooxygenase 2 activity (synthesis of prostaglandin H2 from 14C-arachidonic acid, TLC autoradiography); conditions: sheep placenta COX-2, 35° C., 30 min
T1 sequence (P79208 17-603): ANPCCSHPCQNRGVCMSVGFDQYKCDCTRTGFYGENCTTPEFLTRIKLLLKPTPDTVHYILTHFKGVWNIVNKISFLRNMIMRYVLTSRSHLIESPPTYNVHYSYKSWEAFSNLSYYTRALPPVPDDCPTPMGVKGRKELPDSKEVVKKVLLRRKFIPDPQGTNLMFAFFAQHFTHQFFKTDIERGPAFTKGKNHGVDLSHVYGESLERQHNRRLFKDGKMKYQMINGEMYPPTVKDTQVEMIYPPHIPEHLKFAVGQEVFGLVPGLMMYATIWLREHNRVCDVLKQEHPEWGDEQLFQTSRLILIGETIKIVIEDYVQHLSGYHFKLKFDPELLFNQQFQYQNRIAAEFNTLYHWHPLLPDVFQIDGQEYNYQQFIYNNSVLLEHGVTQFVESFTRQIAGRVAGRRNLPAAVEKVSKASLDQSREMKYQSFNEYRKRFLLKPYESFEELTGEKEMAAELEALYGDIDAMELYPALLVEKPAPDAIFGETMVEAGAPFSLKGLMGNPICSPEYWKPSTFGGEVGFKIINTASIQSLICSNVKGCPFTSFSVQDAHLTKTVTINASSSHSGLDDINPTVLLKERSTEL
Protocol: Arachidonic acid was used as the substrate in the present example. Ten μl of arachidonic acid was dissolved in methanol (10 mg/ml) and mixed with 5 μCi of ^14C-labeled arachidonic acid; and to obtain a dried substrate, the solvent was evaporated by blowing with nitrogen gas at room temperature. Subsequently, the substrate was dissolved in 50 μl of dimethylsulfoxide (DMSO), and 10 ml of 5 mM Tris-HCl buffer (pH 8.0) containing 2 mM phenol was added to the substrate solution, followed by sonication to completely dissolve the sample. Separately, test compounds having final concentrations of 0.1-10 μM were prepared. […] Five μl of each compound solution was added to 5 μl of the above substrate solution, followed by mixing. The samples were then preincubated at 35° C. for about 10 min. Cyclooxygenase 2 derived from sheep placentae (Cayman Chem.) had been separately diluted 10-fold with the above buffer, and 20 μl of the enzyme solution was added to each of the above samples. The enzyme reaction was carried out at 35° C. for 30 min, and stopped by adding 0.5 ml of ice-cold ethanol to each sample. Then, to 0.9 ml of each sample, 2.0 ml of 2% acetic acid solution was added. Arachidonic acid and its metabolite prostaglandin H2 were then extracted with 3.0 ml of ethyl acetate. From each extracted sample, a 2.0-ml portion was transferred to a new test tube. The solvent was distilled off from the transferred samples under reduced pressure, and the samples were dried in vacuo. Then each dried sample was dissolved in 100 μl of methanol, out of which 5 μl was subjected to analysis by high resolution thin layer chromatography. Arachidonic acid and its metabolite prostaglandin H2 were separated by chromatography with a developing solution of chloroform, ethyl acetate, methanol, acetic acid and water in proportions of 70:30:8:1:0.5 (v/v). The chromatography plate, together with a ^14C-standard substance, was exposed to an imaging plate (Fuji Film), and was analyzed with Fuji Film Bio-Image analyzer BAS-2000 to obtain an autoradiogram. By scanning of spots corresponding to the standard radioactive samples, a standard dose-response curve was plotted. Then, by use of the standard curve, each scanned value of arachidonic acid spots and prostaglandin H2 spots was converted to a amount of radiation. Indomethacin was purchased from Sigma, and PZ25 was a gift from Rhone-Poulenc Rorer.

SMILES	LD50 [1]	LD50 [2] [mg/kg]	LD50 [3] [mg/kg]	Generated Amount of Prostaglandin H2 (%) ([4]; dose of compound 1 μM)	Generated Amount of Prostaglandin H2 (%) ([4]; dose of compound 3 μM)	Generated Amount of Prostaglandin H2 (%) ([4]; dose of compound 10 μM)	Generated Amount of Prostaglandin H2 (%) ([4]; dose of compound 30 μM)
O=c1c2ccccc2[se]n1-c1ccccc1 [Compound A, 2-phenyl-1,2-benzisoselenazol-3(2H)-one]	large doses were required	740	≥ 6810	91.8 ± 14.3	78.6 ± 5.28	46.88 ± 6.49	20.10 ± 1.95
O=c1c2ccccc2sn1-c1ccccc1 [PZ25, 2-phenyl-1,2-benzisothiazol-3(2H)-one, reference compound]	–	–	–	–	103.25 ± 9.29	103.53 ± 11.2	93.9 ± 9.06

— patent US6495517B2, “Cyclooxygenase inhibitor” (A. Natterman & Cie. GmbH, priority 1998, dated 2002)
